Source: patent US8338423B2, “Compositions for the treatment of hyperphenylalaninemia” (Universidad de Zaragoza, priority 2007, dated 2012)

Assays:
[1] = molecular target: T1, PAH (Mus musculus, UniProt P16331); assay: Hepatic PAH activity in mice after oral treatment; assay type: in vivo; conditions: oral about 5.9 mg/kg/day for 10 days; for measured PAH activity: liver extract, control group 1.27±0.63
T1 construct: Liver homogenates were prepared at 4° C; from tissue; host or cells: liver of C57Bl/6 mice
T1 sequence (P16331 1-453): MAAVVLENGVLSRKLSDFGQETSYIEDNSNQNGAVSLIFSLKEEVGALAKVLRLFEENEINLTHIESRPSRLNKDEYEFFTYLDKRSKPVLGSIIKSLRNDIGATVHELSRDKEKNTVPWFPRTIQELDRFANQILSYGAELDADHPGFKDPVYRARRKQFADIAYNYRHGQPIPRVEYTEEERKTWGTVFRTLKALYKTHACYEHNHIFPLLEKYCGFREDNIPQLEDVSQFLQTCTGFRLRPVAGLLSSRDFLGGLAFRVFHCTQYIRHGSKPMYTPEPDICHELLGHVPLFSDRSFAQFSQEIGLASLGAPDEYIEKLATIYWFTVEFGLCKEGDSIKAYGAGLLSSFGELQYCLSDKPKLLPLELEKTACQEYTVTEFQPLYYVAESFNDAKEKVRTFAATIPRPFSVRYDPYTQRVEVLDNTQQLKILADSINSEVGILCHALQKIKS
Experimental: Solutions of Compounds 11 and Compound 13 were prepared at concentrations of 5 mg/ml (14 mM) in 10% DMSO and 10% glucose. For that, stocks of 50 mg/ml (140 mM) of each compound in 100% DMSO were diluted 1:10 with a 10% glucose solution. Both the stocks and the final solutions of Compounds 11 and 13 are in fact suspensions since the compound is not soluble al these conditions.
(§1) Animal experiments were performed by Beat Töny (University of Zurich Children's Hospital). 25 μl/day of 10% DMSO (Group 1, control) or the solutions of Compound 11 (Group 2) or Compound 13 (Group […]) were administered orally for 10 days to young adult C57BI/6 mice (all females) exactly 12 weeks old and with weight between 19 to 23 g were in each group, i.e. in Group 2 and 3 animals were given about 5.9 mg/kg/day. Five animals were treated in each group, and no weight change was experienced upon treatment, i.e. <5% change between start and end. Animals were sacrificed at day 10 of treatment, and their livers were sectioned in two frozen immediately in liquid nitrogen, then the frozen half-livers were sent to the Department of Biomedicine, University of Bergen in dry ice. Liver homogenates were prepared at 4° C. in presence of dithiothreitol (DTT) and the protease inhibitors phenylmethylsulfonyl fluoride, leupeptin, and pepstatin as described, Elzaouk L, et al. J Biol Chem 2003; 278(30):28303-11. After homogeneization the extracts were clarified by centrifugation al 170,000 g for 30 min at 4° C.
(§2) The concentration of soluble protein was about 35 mg/ml of liver extract, similar in each group. The hepatic PAH response to oral supplementation of DMSO and of Compounds 11, 13 in 10% DMSO was analyzed b determining: • i) PAH activity, as described, after removal of free amino acids and contaminants of low molecular weight by using Zebra™ Desalt Spin columns(Pierce). • ii) Pah-mRNA expression by quantitative real-time PCR analysis, performed as reported

[2] = tested on: Pah-mRNA; assay: Pah-mRNA expression in mouse liver by quantitative real-time PCR; assay type: in vivo; conditions: treated mice compared to controls, 10 days oral
Experimental: as §1, with “Liver homogenates were prepared at 4° C. in presence of dithiothreitol (DTT) and the protease inhibitors phenylmethylsulfonyl fluoride, leupeptin, and pepstatin as described, Elzaouk L, et al. J Biol Chem 2003; 278(30):28303-11. After homogeneization the extracts were clarified by centrifugation al 170,000 g for 30 min at 4° C.” left out
as §2

[3] = tested on: PAH protein expressed in A293 cells; assay: Immunoreactive PAH protein (Western blot) in transfected A293 cells; assay type: cell-based, human; conditions: 40 μM compound, 24 h (FIG. 4B)
Experimental: Human embryonic kidney cells (A293; purchased from Invitrogen) were grown in Dulbecco's Modified Eagle's Medium (DMEM) containing 4.5 g/l glucose, 10% (v/v) fetal calf serum, 2 mM L-glutamine, 100 i.u./ml penicillin, 100 μg/ml streptomycin and 0.25 mg/ml G-418. A293 cells were transiently transfected with 1 μg of pcDNA3-PAH expression vector (wt or mutant PAH constructs), using the lipofectamine system (Gibco, Invitrogen) as described by the manufacturer. Pharmacological chaperones were added after 5 h of transfection (final concentration 40 μM ligand in DMSO 1%), incubated for 24 h and cells were then harvested and stored at −80° C. […]
Western blot analyses were performed after SDS-PAGE (10% acrylamide) using as primary antibody a monoclonal mouse ant-human PAH (Chemicon, Australia) and as secondary antibody a goat anti-mouse HRP conjugate (Bio-Rad, US). Detection was performed using a chemiluminiscence method (ECL; Amersham Biosciences) and quantified an a Fluor-S™ Multilmager (Bio-Rad, US) using Quantify one v. […]
After transfection of A293 cells with constructs carrying wt-PAH and PKU mutants cDNA, the cells were incubated for 24 h in the presence or absence of 40 μM of hit compounds 11 and 13. Cell were harvested and immunoreactive PAH protein and PAH activity were measured in soluble cell extracts. […]

measured PAH activity [1] | increase in PAH activity (significance) ([1]; liver) | increase in PAH activity ([1]; liver, C57BI/6 mice) [fold] | SMILES | Pah-mRNA expression [2] | PAH immunoreactive protein [3]
1.41±0.54 | not significant |  | Cc1ccnc(-n2c(=S)[nH]c3sc(C)c(C)c3c2=O)c1 [Compound 13, 5,6-dimethyl-3-(4-methyl-2-pyridinyl)-2-thioxo-2,3 dihydrothieno[2,3-d]pyrimidin-4(1H)-one] |  | 
2.2±0.78 |  | 1.65 | Nc1c(-c2ccc3ccccc3n2)c2ccc([N+](=O)[O-])cc2c(=O)n1Cc1ccccc1 [Compound 11, 3-amino-2-benzyl-7-nitro-4-(2-quinolyl)-1,2-dihydroisoquinolin-1-one] | No change | increase in PAH immunoreactive protein was observed
